This is an account of results in ChEMBL document CHEMBL1143925, “Deconstructing cytisine: The syntheses of (+/-)-cyfusine and (+/-)-cyclopropylcyfusine, fused ring analogs of cytisine” (Bioorg Med Chem Lett, 2008).

pKi: −log10 of the molar value.

In assay [1] the target is Neuronal acetylcholine receptor; alpha4/beta2 (Rattus norvegicus, UniProt P09483+P12390). Briefly: Displacement of [3H]nicotine from alpha4beta2 nAChR in Sprague-Dawley rat brain membrane. Type of assay: cell membranes. In general terms: In a radioligand displacement assay an active substance lowers the binding of a labelled ligand.
The target of assay [2] is Neuronal acetylcholine receptor subunit alpha-7 (Rattus norvegicus, UniProt Q05941). Briefly: Displacement of [125I]alpha-bungarotoxin from rat alpha7 nAChR in GH4C1 cells. Type of assay: cell-based, GH4-C1.
The target of assay [3] is Neuronal acetylcholine receptor; alpha3/beta4 (Homo sapiens, UniProt P30926+P32297). Briefly: Displacement of [3H]epibatidine from human alpha3beta4 nAChR in IMR32 cells. Type of assay: cell-based, IMR-32.
Neuronal acetylcholine receptor; alpha3/beta4, sequence (P30926 whole entry): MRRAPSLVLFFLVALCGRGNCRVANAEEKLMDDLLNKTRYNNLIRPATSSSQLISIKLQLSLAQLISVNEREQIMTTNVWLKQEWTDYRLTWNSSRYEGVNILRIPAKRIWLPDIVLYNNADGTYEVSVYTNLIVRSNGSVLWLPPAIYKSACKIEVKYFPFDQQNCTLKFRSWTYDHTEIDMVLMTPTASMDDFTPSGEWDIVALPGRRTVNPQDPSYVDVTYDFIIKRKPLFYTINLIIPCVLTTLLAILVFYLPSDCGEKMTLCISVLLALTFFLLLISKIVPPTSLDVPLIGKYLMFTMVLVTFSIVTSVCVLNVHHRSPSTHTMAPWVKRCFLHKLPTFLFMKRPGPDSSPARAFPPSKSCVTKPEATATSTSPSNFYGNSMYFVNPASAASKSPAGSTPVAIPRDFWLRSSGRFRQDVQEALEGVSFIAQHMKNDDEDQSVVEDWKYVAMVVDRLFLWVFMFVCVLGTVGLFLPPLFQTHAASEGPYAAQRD
Neuronal acetylcholine receptor; alpha3/beta4, sequence (P32297 whole entry): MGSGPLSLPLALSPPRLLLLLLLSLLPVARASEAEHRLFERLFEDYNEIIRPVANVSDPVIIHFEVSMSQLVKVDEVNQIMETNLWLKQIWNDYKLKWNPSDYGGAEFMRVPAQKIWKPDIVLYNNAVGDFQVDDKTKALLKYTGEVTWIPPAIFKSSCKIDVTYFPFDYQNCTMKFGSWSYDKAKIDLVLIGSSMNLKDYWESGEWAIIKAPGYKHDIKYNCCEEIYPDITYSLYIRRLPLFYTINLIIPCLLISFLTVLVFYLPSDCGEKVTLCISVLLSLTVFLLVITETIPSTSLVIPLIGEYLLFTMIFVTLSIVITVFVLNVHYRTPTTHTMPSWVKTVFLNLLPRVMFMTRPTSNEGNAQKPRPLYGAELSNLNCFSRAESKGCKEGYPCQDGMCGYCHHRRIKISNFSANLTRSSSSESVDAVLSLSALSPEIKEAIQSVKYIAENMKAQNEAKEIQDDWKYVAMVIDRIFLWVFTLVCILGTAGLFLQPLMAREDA

Neuronal acetylcholine receptor subunit alpha-7, sequence (Q05941 whole entry): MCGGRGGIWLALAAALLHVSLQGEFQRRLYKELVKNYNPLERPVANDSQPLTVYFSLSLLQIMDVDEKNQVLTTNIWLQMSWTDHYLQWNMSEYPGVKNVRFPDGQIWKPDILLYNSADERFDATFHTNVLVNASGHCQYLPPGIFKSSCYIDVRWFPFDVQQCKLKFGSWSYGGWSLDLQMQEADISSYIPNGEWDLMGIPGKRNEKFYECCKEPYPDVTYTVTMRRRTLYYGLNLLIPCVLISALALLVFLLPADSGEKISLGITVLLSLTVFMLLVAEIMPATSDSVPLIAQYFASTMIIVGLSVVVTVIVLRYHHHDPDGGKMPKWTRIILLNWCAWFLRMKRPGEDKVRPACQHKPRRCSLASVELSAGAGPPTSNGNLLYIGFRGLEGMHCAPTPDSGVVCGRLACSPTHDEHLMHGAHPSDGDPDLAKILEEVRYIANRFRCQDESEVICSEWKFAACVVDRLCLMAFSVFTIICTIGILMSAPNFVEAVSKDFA
Neuronal acetylcholine receptor; alpha4/beta2, sequence (P09483 whole entry): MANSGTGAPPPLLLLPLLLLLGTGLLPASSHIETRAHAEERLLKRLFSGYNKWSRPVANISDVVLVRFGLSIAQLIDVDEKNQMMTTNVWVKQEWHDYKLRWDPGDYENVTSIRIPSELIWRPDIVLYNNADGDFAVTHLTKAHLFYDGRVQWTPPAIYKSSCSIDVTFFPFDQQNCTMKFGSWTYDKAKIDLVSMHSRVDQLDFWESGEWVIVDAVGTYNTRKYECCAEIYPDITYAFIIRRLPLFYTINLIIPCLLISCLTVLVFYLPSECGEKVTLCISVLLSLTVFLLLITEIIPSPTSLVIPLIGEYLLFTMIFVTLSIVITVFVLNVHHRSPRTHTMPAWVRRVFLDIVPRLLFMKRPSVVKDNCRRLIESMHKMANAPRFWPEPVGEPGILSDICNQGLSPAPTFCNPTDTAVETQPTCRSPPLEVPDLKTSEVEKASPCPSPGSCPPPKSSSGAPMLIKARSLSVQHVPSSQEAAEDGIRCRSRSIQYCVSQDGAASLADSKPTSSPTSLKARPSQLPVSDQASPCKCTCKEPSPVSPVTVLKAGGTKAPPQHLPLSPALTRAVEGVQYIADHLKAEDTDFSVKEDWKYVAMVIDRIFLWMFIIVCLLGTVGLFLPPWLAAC
Neuronal acetylcholine receptor; alpha4/beta2, sequence (P12390 whole entry): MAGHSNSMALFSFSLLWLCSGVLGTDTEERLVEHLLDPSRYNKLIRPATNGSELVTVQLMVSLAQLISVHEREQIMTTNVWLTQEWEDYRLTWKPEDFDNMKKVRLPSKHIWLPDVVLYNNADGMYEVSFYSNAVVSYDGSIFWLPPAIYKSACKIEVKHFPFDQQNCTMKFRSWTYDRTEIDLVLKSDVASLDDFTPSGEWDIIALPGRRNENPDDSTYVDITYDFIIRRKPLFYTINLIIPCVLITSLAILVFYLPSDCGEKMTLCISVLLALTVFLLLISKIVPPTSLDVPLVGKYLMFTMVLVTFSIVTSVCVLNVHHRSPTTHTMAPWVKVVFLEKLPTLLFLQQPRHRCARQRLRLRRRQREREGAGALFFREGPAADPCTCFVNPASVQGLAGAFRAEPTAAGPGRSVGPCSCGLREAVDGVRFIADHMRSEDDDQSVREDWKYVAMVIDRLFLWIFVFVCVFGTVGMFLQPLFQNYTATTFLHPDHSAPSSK

By pKi is commonly meant −log10 of the Ki, conventionally taken in molar units. `O=c1cccc2n1CC13CNCC21C3` (racemic) [CYCLOPROPYLCYFUSINE]: the pKi in assay [1] is 6.84; in assay [2] it was less than 6.30; in assay [3] it was less than 6.30.
With `O=c1cccc2n1CC1CNCC21` (racemic) [CYFUSINE], the pKi in assay [1] was 7.80; in assay [2], less than 6.30; in assay [3] it was less than 6.30.
In the case of `O=c1cccc2n1C[C@@H]1CNC[C@H]2C1` [CYTISINICLINE], the pKi in assay [1] was 9.37; in assay [2], 5.24; in assay [3], 5.81.
